# Measurements from ChEMBL document CHEMBL1201862, “PubChem BioAssay data set” (2004).
#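 Briefly, cells in 96-well plates were exposed to five compound concentrations for 48 h, and endpoints were estimated by linear interpolation. The concentration for 50% growth inhibition is given as GI50.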 Activity calls are given as the source filed them. Rule as the data show it: active = GI50 up to about 1.1 µM and inactive = higher.
# What was measured:
# Test in all cases: NCI anticancer screen, dose series, 48 h
# 786-0 = system: 786-0
# A498 = system: A498
# ACHN = system: ACHN
# BT-549 = system: BT-549
# CAKI-1 = system: CAKI-1
# CCRF-CEM = system: CCRF-CEM
# COLO 205 = system: COLO 205
# DU-145 = system: DU-145
# EKVX = system: EKVX
# HCC 2998 = system: HCC 2998
# HCT-116 = system: HCT-116
# HCT-15 = system: HCT-15
# HL-60 = system: HL-60
# HOP-62 = system: HOP-62
# HT-29 = system: HT-29
# Hs-578T = system: Hs-578T
# IGROV-1 = system: IGROV-1
# K562 = system: K562
# KM12 = system: KM12
# M14 = system: M14
# MCF7 = system: MCF7
# MDA-MB-231 = system: MDA-MB-231
# MDA-N = system: MDA-N
# MOLT-4 = system: MOLT-4
# Malme-3M = system: Malme-3M
# NCI-H226 = system: NCI-H226
# NCI-H23 = system: NCI-H23
# NCI-H460 = system: NCI-H460
# NCI-H522 = system: NCI-H522
# NCI/ADR-RES = system: NCI/ADR-RES
# OVCAR-3 = system: OVCAR-3
# OVCAR-4 = system: OVCAR-4
# OVCAR-5 = system: OVCAR-5
# OVCAR-8 = system: OVCAR-8
# PC-3 = system: PC-3
# RXF 393 = system: RXF 393
# SF-268 = system: SF-268
# SF-295 = system: SF-295
# SF-539 = system: SF-539
# SK-MEL-28 = system: SK-MEL-28
# SK-MEL-2 = system: SK-MEL-2
# SK-MEL-5 = system: SK-MEL-5
# SK-OV-3 = system: SK-OV-3
# SN12C = system: SN12C
# SNB-19 = system: SNB-19
# SNB-75 = system: SNB-75
# SR = system: SR
# SW-620 = system: SW-620
# T47D = system: T47D
# TK-10 = system: TK-10
# UACC-257 = system: UACC-257
# UACC-62 = system: UACC-62
# UO-31 = system: UO-31
# A549 = system: A549
# MDA-MB-435 = system: MDA-MB-435
# RPMI-8226 = system: RPMI-8226
# U-251 = system: U-251
# LOX IMVI = system: LOX IMVI
smiles,measurement,setting,value
Cc1ccc(C(=O)Nc2ccc(S(=O)(=O)O)c3cc(S(=O)(=O)O)cc(S(=O)(=O)O)c23)cc1N,GI50,786-0,> 100 µM (inactive)
same,GI50,A498,> 100 µM (inactive)
same,GI50,ACHN,> 100 µM (inactive)
same,GI50,BT-549,> 100 µM (inactive)
same,GI50,CAKI-1,> 100 µM (inactive)
same,GI50,CCRF-CEM,> 100 µM (inactive)
same,GI50,COLO 205,> 100 µM (inactive)
same,GI50,DU-145,> 100 µM (inactive)
same,GI50,EKVX,> 100 µM (inactive)
same,GI50,HCC 2998,> 100 µM (inactive)
same,GI50,HCT-116,> 100 µM (inactive)
same,GI50,HCT-15,> 100 µM
same,GI50,HL-60,> 100 µM (inactive)
same,GI50,HOP-62,> 100 µM (inactive)
same,GI50,HT-29,> 100 µM (inactive)
same,GI50,Hs-578T,> 100 µM (inactive)
same,GI50,IGROV-1,> 100 µM (inactive)
same,GI50,K562,> 100 µM (inactive)
same,GI50,KM12,> 100 µM (inactive)
same,GI50,M14,> 100 µM (inactive)
same,GI50,MCF7,> 100 µM (inactive)
same,GI50,MDA-MB-231,> 100 µM (inactive)
same,GI50,MDA-N,> 100 µM (inactive)
same,GI50,MOLT-4,> 100 µM (inactive)
same,GI50,Malme-3M,> 100 µM (inactive)
same,GI50,NCI-H226,> 100 µM (inactive)
same,GI50,NCI-H23,> 100 µM (inactive)
same,GI50,NCI-H460,> 100 µM (inactive)
same,GI50,NCI-H522,> 100 µM (inactive)
same,GI50,NCI/ADR-RES,> 100 µM (inactive)
same,GI50,OVCAR-3,> 100 µM (inactive)
same,GI50,OVCAR-4,> 100 µM (inactive)
same,GI50,OVCAR-5,> 100 µM (inactive)
same,GI50,OVCAR-8,> 100 µM (inactive)
same,GI50,PC-3,> 100 µM (inactive)
same,GI50,RXF 393,> 100 µM (inactive)
same,GI50,SF-268,> 100 µM (inactive)
same,GI50,SF-295,2.75 µM (inactive)
same,GI50,SF-539,> 100 µM (inactive)
same,GI50,SK-MEL-28,> 100 µM (inactive)
same,GI50,SK-MEL-2,> 100 µM (inactive)
same,GI50,SK-MEL-5,> 100 µM (inactive)
same,GI50,SK-OV-3,91.6 µM (inactive)
same,GI50,SN12C,> 100 µM (inactive)
same,GI50,SNB-19,> 100 µM (inactive)
same,GI50,SNB-75,> 100 µM (inactive)
same,GI50,SR,> 100 µM (inactive)
same,GI50,SW-620,> 100 µM (inactive)
same,GI50,T47D,> 100 µM (inactive)
same,GI50,TK-10,> 100 µM (inactive)
same,GI50,UACC-257,> 100 µM (inactive)
same,GI50,UACC-62,> 100 µM (inactive)
same,GI50,UO-31,> 100 µM (inactive)
CCOC(=O)C1=COC(C)(CCc2ccccc2)CC1=O (centres undefined),GI50,786-0,> 100 µM (inactive)
same,GI50,A498,> 100 µM (inactive)
same,GI50,A549,40.9 µM (inactive)
same,GI50,ACHN,> 100 µM (inactive)
same,GI50,BT-549,71.4 µM (inactive)
same,GI50,CAKI-1,> 100 µM (inactive)
same,GI50,COLO 205,> 100 µM (inactive)
same,GI50,DU-145,> 100 µM (inactive)
same,GI50,EKVX,> 100 µM (inactive)
same,GI50,HCT-116,67.9 µM (inactive)
same,GI50,HCT-15,> 100 µM
same,GI50,HOP-62,> 100 µM (inactive)
same,GI50,HT-29,56.2 µM (inactive)
same,GI50,Hs-578T,45 µM (inactive)
same,GI50,K562,40.3 µM (inactive)
same,GI50,KM12,56.2 µM (inactive)
same,GI50,M14,> 100 µM (inactive)
same,GI50,MCF7,44 µM (inactive)
same,GI50,MDA-MB-231,82.6 µM (inactive)
same,GI50,MDA-MB-435,51.8 µM (inactive)
same,GI50,MDA-N,87.7 µM (inactive)
same,GI50,MOLT-4,43.2 µM (inactive)
same,GI50,NCI-H23,95.5 µM (inactive)
same,GI50,NCI-H460,92.5 µM (inactive)
same,GI50,NCI-H522,24.7 µM (inactive)
same,GI50,NCI/ADR-RES,> 100 µM (inactive)
same,GI50,OVCAR-3,80.2 µM (inactive)
same,GI50,OVCAR-4,> 100 µM (inactive)
same,GI50,OVCAR-5,> 100 µM (inactive)
same,GI50,OVCAR-8,52.4 µM (inactive)
same,GI50,PC-3,89.1 µM (inactive)
same,GI50,RPMI-8226,41.9 µM (inactive)
same,GI50,RXF 393,59.4 µM (inactive)
same,GI50,SF-268,> 100 µM (inactive)
same,GI50,SF-295,> 100 µM (inactive)
same,GI50,SF-539,66.5 µM (inactive)
same,GI50,SK-MEL-28,> 100 µM (inactive)
same,GI50,SK-MEL-2,> 100 µM (inactive)
same,GI50,SK-MEL-5,94 µM (inactive)
same,GI50,SK-OV-3,> 100 µM (inactive)
same,GI50,SN12C,> 100 µM (inactive)
same,GI50,SNB-19,56.2 µM (inactive)
same,GI50,SNB-75,> 100 µM (inactive)
same,GI50,SW-620,> 100 µM (inactive)
same,GI50,T47D,47.2 µM (inactive)
same,GI50,TK-10,> 100 µM (inactive)
same,GI50,U-251,41.3 µM (inactive)
same,GI50,UACC-257,> 100 µM (inactive)
same,GI50,UACC-62,55.7 µM (inactive)
same,GI50,UO-31,91.2 µM (inactive)
CCOC(=O)C(OP(=O)(OCC)OCC)C(F)(F)F (centres undefined),GI50,A498,> 100 µM (inactive)
same,GI50,ACHN,> 100 µM (inactive)
same,GI50,BT-549,> 100 µM (inactive)
same,GI50,CCRF-CEM,> 100 µM (inactive)
same,GI50,DU-145,> 100 µM (inactive)
same,GI50,EKVX,> 100 µM (inactive)
same,GI50,HCC 2998,> 100 µM (inactive)
same,GI50,HCT-116,> 100 µM (inactive)
same,GI50,HCT-15,> 100 µM
same,GI50,HL-60,> 100 µM (inactive)
same,GI50,HOP-62,> 100 µM (inactive)
same,GI50,HT-29,> 100 µM (inactive)
same,GI50,Hs-578T,> 100 µM (inactive)
same,GI50,K562,> 100 µM (inactive)
same,GI50,KM12,> 100 µM (inactive)
same,GI50,LOX IMVI,> 100 µM (inactive)
same,GI50,M14,> 100 µM (inactive)
same,GI50,MCF7,> 100 µM (inactive)
same,GI50,MDA-MB-231,> 100 µM (inactive)
same,GI50,MDA-MB-435,> 100 µM (inactive)
same,GI50,MDA-N,> 100 µM (inactive)
same,GI50,MOLT-4,> 100 µM (inactive)
same,GI50,Malme-3M,> 100 µM (inactive)
same,GI50,NCI-H226,> 100 µM (inactive)
same,GI50,NCI-H23,> 100 µM (inactive)
same,GI50,NCI-H460,> 100 µM (inactive)
same,GI50,NCI-H522,> 100 µM (inactive)
same,GI50,OVCAR-3,> 100 µM (inactive)
same,GI50,OVCAR-5,> 100 µM (inactive)
same,GI50,RPMI-8226,> 100 µM (inactive)
same,GI50,RXF 393,> 100 µM (inactive)
same,GI50,SF-268,> 100 µM (inactive)
same,GI50,SF-539,> 100 µM (inactive)
same,GI50,SK-MEL-28,> 100 µM (inactive)
same,GI50,SK-MEL-2,> 100 µM (inactive)
same,GI50,SK-OV-3,> 100 µM (inactive)
same,GI50,SN12C,> 100 µM (inactive)
same,GI50,SNB-19,> 100 µM (inactive)
same,GI50,SNB-75,> 100 µM (inactive)
same,GI50,SR,> 100 µM (inactive)
same,GI50,T47D,> 100 µM (inactive)
same,GI50,TK-10,> 100 µM (inactive)
same,GI50,U-251,> 100 µM (inactive)
same,GI50,UACC-257,> 100 µM (inactive)
same,GI50,UACC-62,> 100 µM (inactive)
same,GI50,UO-31,> 100 µM (inactive)
